# “And” between values parts separate entries of the source, which are not always exact repeats. Equal values may be shown once.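 Tested at 5 concentrations; 48 h exposure; 96-well plates; endpoints linearly interpolated, else capped at highest concentration. The concentration for 50% growth inhibition is given as GI50. TGI: total growth inhibition.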
# Columns and labels:
# Experiment in all cases: NCI tumour cell line growth inhibition, 48 h
# [1] = test system: K-562 leukemia
# [2] = test system: UACC-62 melanoma
# [3] = test system: HOP-62 NSCLC
# [4] = test system: UO-31 renal
# [5] = test system: MALME-3M melanoma
# [6] = test system: KM12 colon
# [7] = test system: SF-268 CNS
# [8] = test system: M14 melanoma
# [9] = test system: HL-60(TB) leukemia
# [10] = test system: DMS 114 small cell lung
structure (smiles),measurement,setting,value
O=C(/C=C/c1ccccc1O)c1cccnc1,TGI,[1],> 100 µM
same,TGI,[2],> 100 µM
same,TGI,[3],> 100 µM
same,TGI,[4],> 100 µM
same,TGI,[5],> 100 µM
same,TGI,[6],> 100 µM
same,TGI,[7],> 100 µM
same,TGI,[8],> 100 µM
same,TGI,[9],> 100 µM
S=C=NCc1ccccc1,TGI,[1],> 19.9 µM
same,TGI,[2],14.1 µM
same,TGI,[3],11.7 µM
same,TGI,[4],6.74 µM
same,TGI,[5],19.6 µM
same,TGI,[6],15.8 µM
same,TGI,[7],13.5 µM
same,TGI,[8],5.81 µM
same,TGI,[9],3.95 µM
O=C(O)CCCSc1nc2ccccc2s1,TGI,[1],> 100 µM
same,TGI,[2],> 100 µM
same,TGI,[3],> 100 µM
same,TGI,[4],> 100 µM
same,TGI,[5],> 100 µM
same,TGI,[6],> 100 µM
same,TGI,[7],> 100 µM
same,TGI,[8],> 100 µM
same,TGI,[9],> 100 µM
CO[C@H]1C[C@@H]2CC[C@@H](C)[C@@](O)(O2)C(=O)C(=O)N2CCCC[C@H]2C(=O)O[C@H]([C@H](C)C[C@@H]2CC[C@@H](OP(C)(C)=O)[C@H](OC)C2)CC(=O)[C@H](C)/C=C(\C)[C@@H](O)[C@@H](OC)C(=O)[C@H](C)C[C@H](C)/C=C/C=C/C=C/1C,GI50,[1],11.7 µM
same,TGI,[1],> 69.4 µM
same,GI50,[2],0.386 µM
same,TGI,[2],20.7 µM
same,GI50,[3],< 0.01 µM
same,TGI,[3],21.5 µM
same,GI50,[4],< 0.01 µM
same,TGI,[4],16.1 µM
same,GI50,[5],< 0.01 µM
same,TGI,[5],16.8 µM
same,GI50,[6],11.1 µM
same,TGI,[6],25.3 µM
same,GI50,[7],10.9 µM
same,TGI,[7],23.6 µM
same,GI50,[8],11.8 µM
same,TGI,[8],26 µM
same,GI50,[9],17.5 µM
same,TGI,[9],39.8 µM
CCC[CH2][Sn]([CH2]CCC)([O]C(=O)c1cc(OC)c(OC)cc1OC)[O]C(=O)c1cc(OC)c(OC)cc1OC,GI50,[1],0.324 µM
same,TGI,[1],2.97 µM
same,GI50,[2],1.12 µM
same,TGI,[2],2.37 µM
same,GI50,[3],2.35 µM
same,TGI,[3],4.41 µM
same,GI50,[4],1.57 µM
same,TGI,[4],2.92 µM
same,GI50,[5],0.793 µM
same,TGI,[5],2.08 µM
same,GI50,[6],1.75 µM
same,TGI,[6],4.07 µM
same,GI50,[7],1.23 µM
same,TGI,[7],2.54 µM
same,GI50,[10],0.492 µM
same,TGI,[10],1.95 µM
same,GI50,[8],1.51 µM
same,TGI,[8],2.99 µM
CC1(C)CC(=O)c2c(ccc(C(=O)C[C@H](N)CO)c2N)O1,GI50,[1],2.27 µM and 0.251 µM
same,TGI,[1],17.5 µM and > 33.3 µM
same,TGI,[2],10.5 µM and 10.6 µM
same,GI50,[3],2.39 µM
same,TGI,[3],17.5 µM and > 33.3 µM
same,GI50,[4],1.73 µM and 0.409 µM
same,TGI,[4],17.5 µM and > 33.3 µM
same,GI50,[5],> 33.3 µM
same,TGI,[5],> 33.3 µM
same,GI50,[6],1.23 µM and 0.189 µM
same,TGI,[6],17.5 µM and > 33.3 µM
same,GI50,[7],5.03 µM and 0.594 µM
same,TGI,[7],17.5 µM and > 33.3 µM
same,TGI,[8],17.5 µM and 11.3 µM
same,GI50,[9],8.45 µM and 6.34 µM
same,TGI,[9],17.5 µM and > 33.3 µM
COc1cc2ccnc(-c3c4ccccc4c(N)c4c(OC)c(OC)ccc34)c2cc1OC,TGI,[1],7.98 µM
same,TGI,[2],10.1 µM
same,TGI,[3],14.9 µM
same,TGI,[4],13.5 µM
same,TGI,[5],11.5 µM
same,TGI,[6],11.3 µM
same,TGI,[7],18.6 µM
same,TGI,[10],4.71 µM
same,TGI,[9],4.44 µM
CN(C)C(=O)c1cc2cnc(Nc3ccc(-c4csc5c(=O)cc(N6CCNCC6)oc45)cc3)nc2n1C1CCCC1,GI50,[1],0.456 µM
same,TGI,[1],4.2 µM
same,GI50,[2],1.44 µM
same,TGI,[2],8.69 µM
same,GI50,[3],1.03 µM
same,TGI,[3],10.6 µM
same,GI50,[4],1.64 µM
same,TGI,[4],4.58 µM
same,GI50,[5],1.38 µM
same,TGI,[5],2.94 µM
same,GI50,[6],0.345 µM
same,TGI,[6],1.58 µM
same,GI50,[7],0.638 µM
same,TGI,[7],4.09 µM
same,GI50,[8],0.99 µM
same,TGI,[8],2.59 µM
same,GI50,[9],0.271 µM
same,TGI,[9],1.72 µM
ICCC(c1ccccc1)(c1ccccc1)c1ccccc1,GI50,[1],1.67 µM
same,TGI,[1],4.93 µM
same,GI50,[2],2.46 µM
same,TGI,[2],5.74 µM
same,GI50,[3],11.6 µM
same,TGI,[3],24 µM
same,GI50,[4],1.72 µM
same,TGI,[4],9.87 µM
same,GI50,[5],1.9 µM
same,TGI,[5],3.6 µM
same,GI50,[6],4.45 µM
same,TGI,[6],15.4 µM
same,GI50,[7],4.4 µM
same,TGI,[7],16.8 µM
same,GI50,[8],1.92 µM
same,TGI,[8],3.72 µM
same,GI50,[9],1.72 µM
same,TGI,[9],3.88 µM
COc1ccc2c(c1)sc1nc(-c3ccccc3)c(-c3ccc(O)c(OC)c3)n12,GI50,[1],4.53 µM
same,TGI,[1],> 100 µM
same,GI50,[2],8.29 µM
same,TGI,[2],> 100 µM
same,GI50,[3],37.8 µM
same,TGI,[3],> 100 µM
same,GI50,[4],81 µM
same,TGI,[4],> 100 µM
same,GI50,[5],> 100 µM
same,TGI,[5],> 100 µM
same,GI50,[6],4.81 µM
same,TGI,[6],> 100 µM
same,GI50,[7],28.8 µM
same,TGI,[7],> 100 µM
same,GI50,[8],4.34 µM
same,TGI,[8],> 100 µM
same,GI50,[9],5.33 µM
same,TGI,[9],> 100 µM
C[C@H]1[C@H](C)CC[C@]2(C(=O)O)CC[C@]3(C)C(=CC[C@@H]4[C@@]5(C)CC[C@H](OC(=O)/C=C/c6ccc(O)cc6)C(C)(C)[C@@H]5CC[C@]43C)[C@H]12,GI50,[1],7.14 µM
same,TGI,[1],47.2 µM
same,GI50,[2],15.1 µM
same,TGI,[2],31.6 µM
same,GI50,[3],3.63 µM
same,TGI,[3],7.03 µM
same,GI50,[4],3.59 µM
same,TGI,[4],29.8 µM
same,GI50,[5],1.9 µM
same,TGI,[5],20 µM
same,GI50,[6],1.09 µM
same,TGI,[6],9.97 µM
same,GI50,[7],3.23 µM
same,TGI,[7],12 µM
same,GI50,[8],4.13 µM
same,TGI,[8],12.5 µM
same,GI50,[9],6.53 µM
same,TGI,[9],34.3 µM
CCOC(=O)N1N=NC2C3OC(C[C@@]3(C#N)OC(C)=O)[C@H]21 (stereo partly drawn),TGI,[1],> 100 µM
same,TGI,[2],> 100 µM
same,TGI,[3],> 100 µM
same,TGI,[4],> 100 µM
same,TGI,[5],> 100 µM
same,TGI,[6],> 100 µM
same,TGI,[7],> 100 µM
same,TGI,[8],> 100 µM
same,TGI,[9],> 100 µM
O=C(NNc1ccccc1)OCc1ccccc1,GI50,[1],1.94 µM
same,TGI,[1],> 100 µM
same,GI50,[2],0.462 µM
same,TGI,[2],8.43 µM
same,GI50,[3],84.5 µM
same,TGI,[3],> 100 µM
same,GI50,[4],2.88 µM
same,TGI,[4],37 µM
same,GI50,[5],20.1 µM
same,TGI,[5],96.6 µM
same,GI50,[6],3.92 µM
same,TGI,[6],> 100 µM
same,GI50,[7],9.27 µM
same,TGI,[7],> 100 µM
same,GI50,[8],2.81 µM
same,TGI,[8],60.6 µM
same,GI50,[9],3.55 µM
same,TGI,[9],58.7 µM
Nc1nc(N)c2c(ccc3nccc32)[nH]1,GI50,[1],0.319 µM
same,TGI,[1],> 100 µM
same,GI50,[2],2.67 µM
same,TGI,[2],17.6 µM
same,GI50,[3],24.8 µM
same,TGI,[3],> 100 µM
same,GI50,[4],4.14 µM
same,TGI,[4],31.1 µM
same,GI50,[5],5.28 µM
same,TGI,[5],33.6 µM
same,GI50,[6],5.05 µM
same,TGI,[6],27.1 µM
same,GI50,[7],2.11 µM
same,TGI,[7],56.2 µM
same,GI50,[8],1.92 µM
same,TGI,[8],> 79.8 µM
same,GI50,[9],2.53 µM
same,TGI,[9],> 78.8 µM
Nc1c(C(=O)c2cccc(C#CCN3CCOCC3)c2)cnn1-c1ccc(F)cc1,GI50,[1],7.91 µM
same,TGI,[1],> 25 µM
same,GI50,[2],19.6 µM
same,TGI,[2],> 25 µM
same,GI50,[3],> 25 µM
same,TGI,[3],> 25 µM
same,GI50,[4],> 25 µM
same,TGI,[4],> 25 µM
same,GI50,[5],> 12.4 µM
same,TGI,[5],> 25 µM
same,GI50,[6],8.29 µM
same,TGI,[6],> 25 µM
same,GI50,[7],> 25 µM
same,TGI,[7],> 25 µM
same,GI50,[8],> 25 µM
same,TGI,[8],> 25 µM
same,GI50,[9],16.4 µM
same,TGI,[9],> 25 µM

# Reference: PubChem BioAssay (NCI)
